Laboratory results published in patent publication US11149028B2, “Methods for treating melanoma using small molecules” (NOVA SOUTHEASTERN UNIVERSITY, priority 2016, dated 2021).
“Also recorded” adds a separate entry of the source.

Columns and labels:
Type in all cases: cell-based, human
[1] = tested on: WM266-4 cells; experiment: Annexin V flow cytometry assay; details: 100 μM
Description: After 4, 24 and 48 hrs of compound exposure the adherent and floating cells were combined and stained using the TACS Annexin V-FITC Apoptosis detection kit (Trevigen Inc, Gaithersburg, Md., USA) using manufacturer's protocol. Viable, necrotic, early and late apoptotic cells were counted using Accuri flow cytometer as per the manufacturer instructions.

[2] = tested on: LC3-II and beclin-1 in M14 cells; experiment: Western blotting for LC3 and beclin-1, M14; details: 24 h, 100 μM
Experimental: 1×10^6 of WM266-4 or M14 cells were seeded in 3 mL of E-MEM or RPMI-1640 medium supplemented with 10% FBS and 1% penicillin/streptomycin in 6 cm plates. […] After washing with TBST, the membranes were treated with chemilumiscent horseradish peroxidase detection reagent (Thermo Scientific, Cat #32209) and exposed to autoradiography film (Denville Scientific, Inc., Metuchen, N.J., USA, cat #E3018). ImageJ software (NIH, Bethesda, Md.) was used to quantify the intensity of proteins bands. The protein bands were normalized against loading controls (β-actin) and expressed as a fold of an untreated control.

[3] = tested on: WM266-4 cells; experiment: Mitochondrial potential assay; details: 1 and 4 h; time stated at the place
Experimental: 5,000 WM266-4 cells were seeded in 100 μL of EMEM medium supplemented with 10% FBS in 24-well plate. The cells were treated with carbonyl cyanide m-chlorophenyl hydrazone (CCCP, 25-50 μM) as a pharmacological control and 1-100 μM of 2155-14. After 1, 4, and 24 h, the cells were stained with 200 nM of Mito-Tracker dye (ThermoFisher cat #M22425) and DAPI for 1 h. Finally, the cells were washed with PBS and media was added. The cells were imaged and analyzed using Cytation 5 imager using Cy5 and DAPI filter sets (Biotek Inc, Winoosky, Vt.). To calculate staining intensity, the Object Sum Area value from Cy5 channel was obtained and divided by number of cells using DAPI channel. Both Cy5 and DAPI cell counts were conducted using optimized algorithm in automatic mode. 3 replicate wells were used.

O=C1NC[C@H](Cc2ccccc2)N(C[C@@H]2CCCN2C[C@@H](CC2CCCCC2)N2C[C@H](Cc3ccc(O)cc3)N(CCc3ccccc3)C(=O)C2=O)C1=O [Compound 2155-14, (S)-1((R)-1((S)-2-(((S)-6-benzyl-2,3-dioxopiperazin-1-yl)methyl)pyrrolidin-1-yl)-3-cyclohexylpropan-2-yl)-5-(4-hydroxybenzyl)-4-phenethylpiperazine-2,3-dione]
early apoptotic and necrotic cells, of total population [1]: less than 5%
cells undergoing late apoptosis ([1]; 24 h): 18%
cells undergoing late apoptosis ([1]; 48 h): 32%
cells undergoing late apoptosis in presence of Z-VAD-FMK ([1]; 48 h, 10 μM pan-caspase inhibitor): 29%
LC3-II level, M14 [2]: dose dependent increase
beclin-1 level, M14 [2]: dose dependent increase
mitochondrial potential [3]: no significant effect 1 h after the addition of compounds; also recorded: At 4 h, mitochondrial potential was decreased; also recorded: no significance between untreated control and cells treated with 2155-14
